Reference: ChEMBL document CHEMBL1201862, “PubChem BioAssay data set” (2004)
Where a name gives a salt, the structure may show the parent alone.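 Cells were grown in 96-well plates and exposed to each compound for 48 hours at five concentrations; endpoints were interpolated linearly between bracketing concentrations, or set to the highest concentration if not reached. GI50: concentration for 50% inhibition of growth.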 Active and inactive are the calls of the source. Cut-off read from the data, not from the text of the source: active = GI50 up to about 1.1 µM and inactive = higher.

Legend:
Assay in all cases: NCI-60 cell line screen, 48 h
[1] = system: U-251
[2] = system: NCI-H226
[3] = system: MDA-N
[4] = system: A549
[5] = system: HCT-15
[6] = system: OVCAR-4
[7] = system: NCI/ADR-RES
[8] = system: SF-539
[9] = system: HCT-116
[10] = system: SK-OV-3
[11] = system: MCF7
[12] = system: SK-MEL-5
[13] = system: HT-29
[14] = system: MOLT-4
[15] = system: DU-145
[16] = system: KM12
[17] = system: K562
[18] = system: SR

Compound	GI50 [1]	GI50 [2]	GI50 [3]	GI50 [4]	GI50 [5] [µM]	GI50 [6]	GI50 [7]	GI50 [8]	GI50 [9]	GI50 [10]	GI50 [11]	GI50 [12]	GI50 [13]	GI50 [14]	GI50 [15]	GI50 [16]	GI50 [17]	GI50 [18]
Cc1cc2[nH]c3c(C#N)c(-c4ccccc4)c(/N=N/c4ccc(F)cc4)c(=O)n3c2cc1C	42.5 µM (inactive)	> 100 µM (inactive)	> 100 µM (inactive)	68.1 µM (inactive)	36.6	91 µM (inactive)	> 100 µM (inactive)	> 100 µM (inactive)	25.6 µM (inactive)	> 100 µM (inactive)	> 100 µM (inactive)	9.55 µM (inactive)	–	–	–	–	–	–
CCCCNC(=O)C1=C(C)NC(C)=C(C(=O)NCCCC)C1	> 100 µM (inactive)	> 100 µM (inactive)	> 100 µM (inactive)	> 100 µM (inactive)	> 100	> 100 µM (inactive)	> 100 µM (inactive)	> 100 µM (inactive)	> 100 µM (inactive)	> 100 µM (inactive)	> 100 µM (inactive)	89.7 µM (inactive)	> 100 µM (inactive)	> 100 µM (inactive)	> 100 µM (inactive)	> 100 µM (inactive)	–	–
O=C(N/N=C1\CCc2ccccc2C1)N/N=C1\CCc2ccccc2C1	> 10 µM (inactive)	> 10 µM (inactive)	> 10 µM (inactive)	> 10 µM (inactive)	> 10	> 10 µM (inactive)	> 10 µM (inactive)	–	> 10 µM (inactive)	–	> 10 µM (inactive)	–	> 10 µM (inactive)	> 10 µM (inactive)	> 10 µM (inactive)	> 10 µM (inactive)	> 10 µM (inactive)	> 10 µM (inactive)
COc1ccc(NC(=O)CC/C(CC(=O)C(C)(C)C)=N\NC(=O)C(N)=O)cc1	> 100 µM (inactive)	> 100 µM (inactive)	–	> 100 µM (inactive)	> 100	> 100 µM (inactive)	–	> 100 µM (inactive)	> 100 µM (inactive)	> 100 µM (inactive)	–	–	> 100 µM (inactive)	> 100 µM (inactive)	–	> 100 µM (inactive)	84.9 µM (inactive)	> 100 µM (inactive)
N#C/C(=C/c1ccc2c(c1)OCO2)C(=O)c1ccccc1	> 100 µM (inactive)	–	–	> 100 µM (inactive)	> 100	> 100 µM (inactive)	–	> 100 µM (inactive)	> 100 µM (inactive)	> 100 µM (inactive)	–	> 100 µM (inactive)	> 100 µM (inactive)	> 100 µM (inactive)	–	> 100 µM (inactive)	> 100 µM (inactive)	–
COc1cc(C)c(/C=C2/N=C(c3ccccc3)OC2=O)c([N+](=O)[O-])c1OC	> 100 µM (inactive)	> 100 µM (inactive)	> 100 µM (inactive)	> 100 µM (inactive)	> 100	> 100 µM (inactive)	> 100 µM (inactive)	> 100 µM (inactive)	> 100 µM (inactive)	> 100 µM (inactive)	> 100 µM (inactive)	–	> 100 µM (inactive)	> 100 µM (inactive)	> 100 µM (inactive)	> 100 µM (inactive)	> 100 µM (inactive)	–
[O-][S+]1CC[S+]([O-])CC[S+]([O-])CC1 (stereo unspecified)	> 100 µM (inactive)	–	> 100 µM (inactive)	> 100 µM (inactive)	> 100	> 100 µM (inactive)	> 100 µM (inactive)	> 100 µM (inactive)	> 100 µM (inactive)	> 100 µM (inactive)	> 100 µM (inactive)	> 100 µM (inactive)	> 100 µM (inactive)	> 100 µM (inactive)	> 100 µM (inactive)	> 100 µM (inactive)	> 100 µM (inactive)	> 100 µM (inactive)
OCC1OC(c2ccccc2)CC1O (stereo unspecified)	> 100 µM (inactive)	> 100 µM (inactive)	–	> 100 µM (inactive)	> 100	> 100 µM (inactive)	> 100 µM (inactive)	> 100 µM (inactive)	> 100 µM (inactive)	> 100 µM (inactive)	> 100 µM (inactive)	> 100 µM (inactive)	> 100 µM (inactive)	> 100 µM (inactive)	> 100 µM (inactive)	> 100 µM (inactive)	> 100 µM (inactive)	> 100 µM (inactive)
CCc1c(OC(C)=O)c2c(NC3OCC(OC(C)=O)C(OC(C)=O)C3OC(C)=O)nc(SC)nc2oc1=O (stereo unspecified)	> 100 µM (inactive)	> 100 µM (inactive)	–	> 100 µM (inactive)	> 100	> 100 µM (inactive)	–	> 100 µM (inactive)	> 100 µM (inactive)	> 100 µM (inactive)	–	> 100 µM (inactive)	> 100 µM (inactive)	> 100 µM (inactive)	–	> 100 µM (inactive)	> 100 µM (inactive)	–
COc1ccc(CCNC(=O)c2ccccc2C2c3ccc(OCc4ccccc4)cc3Oc3cc(OCc4ccccc4)ccc32)cc1OC	> 100 µM (inactive)	> 100 µM (inactive)	> 100 µM (inactive)	> 100 µM (inactive)	> 100	> 100 µM (inactive)	> 100 µM (inactive)	–	> 100 µM (inactive)	> 100 µM (inactive)	> 100 µM (inactive)	> 100 µM (inactive)	> 100 µM (inactive)	> 100 µM (inactive)	> 100 µM (inactive)	> 100 µM (inactive)	> 100 µM (inactive)	> 100 µM (inactive)
CCNc1ncnc2c1nnn2CC	> 100 µM (inactive)	> 100 µM (inactive)	> 100 µM (inactive)	> 100 µM (inactive)	> 100	> 100 µM (inactive)	> 100 µM (inactive)	> 100 µM (inactive)	> 100 µM (inactive)	> 100 µM (inactive)	> 100 µM (inactive)	> 100 µM (inactive)	> 100 µM (inactive)	> 100 µM (inactive)	> 100 µM (inactive)	> 100 µM (inactive)	> 100 µM (inactive)	–
O=C(NC1CC1)c1c(O)[nH]c(=S)[nH]c1=O	> 100 µM (inactive)	> 100 µM (inactive)	–	> 100 µM (inactive)	> 100	> 100 µM (inactive)	–	> 100 µM (inactive)	> 100 µM (inactive)	> 100 µM (inactive)	–	> 100 µM (inactive)	> 100 µM (inactive)	> 100 µM (inactive)	–	> 100 µM (inactive)	> 100 µM (inactive)	> 100 µM (inactive)
NCCCCNCCCN [SPERMIDINE TRIHYDROCHLORIDE]	> 100 µM (inactive)	> 100 µM (inactive)	–	> 100 µM (inactive)	> 100	16.7 µM (inactive)	> 100 µM (inactive)	> 100 µM (inactive)	> 100 µM (inactive)	> 100 µM (inactive)	72.8 µM (inactive)	> 100 µM (inactive)	> 100 µM (inactive)	51.3 µM (inactive)	> 100 µM (inactive)	> 100 µM (inactive)	67.8 µM (inactive)	> 100 µM (inactive)
